These results are taken from patent US20090104148A1, “Treatment and prevention of joint disease” (priority 2007, published 2009).

Holding throughout (assay type): in vivo, Male Lewis rats
Assay [1] relates to ACL-transection model. In words: Ex-vivo joint coefficient of friction (μ), modified Stanton pendulum, ACL-transection model, Example 4. To be noted: 28 days following transection.
The subject of assay [2] is ACL-transection model. The experiment in a line: Surface-associated lubricin coverage from 9G3-stained histological specimens, ACL-transection model, Example 4. The procedure: (§1) Etanercept was administered to animals, and condroprotection was evaluated using an ACL-transection model. Male Lewis rats 7-8 weeks were assigned to either an ACL-transection group (n=5), 2 etanercept-treated ACLT groups (n=12, 6 in each group) or a sham surgery group (n=4). Etanercept was given subcutaneously at 0.5 mg/kg on days 8, and 15 following transection (Treatment A) or on days 15 and 22 (Treatment B). At 28 days following transection, ACL-transected (ACLT), contralateral (CL) and sham joints were harvested and lavaged. Lavaging was performed by injecting 50 μl of normal saline in the joint capsule, flexing and extending the joint for ten times and then aspirating 30 μl of fluid.
(§2) SF lubricin levels were determined using a sandwich ELISA employing a lubricin-specific monoclonal antibody such as 9G3, and peanut agglutinin. Surface-associated lubricin coverage was calculated from 9G3-stained histological specimens. Quantitiation of lubricin staining intensity was calculated using Image Pro-Plus software (Media Cybernetics, MD, USA) with pre-determined threshold parameters and expressed as percentage of lubricin surface coverage. An average of lubricin surface coverage of the medial and lateral regions of femur and tibial cartilage surfaces was calculated.

The subject of assay [3] is ACL-transection (ACLT) model. The experiment in a line: SF lavage lubricin levels by sandwich ELISA, ACL-transection model, Example 3. To be noted: etanercept-treated ACLT joints vs non-treated ACLT joints, 0.5 mg/kg subcutaneously days 1, 3, 5, 7, 9, 11, 13, 2 weeks following ACLT. The procedure:
(§3) The following reagents and methods were used to evaluate inhibition of the effects of TNF-α by etanercept and the preservation of joint lubrication and decrease cartilage damage following an ACL injury. ACL-transection (ACLT) model and entanercept administration: Male Lewis rats 7-8 weeks were assigned to either an ACL-transection group (n=5), etanercept-treated ACL-transection group (n=5) or a sham-group (n=4). Etanercept was given subcutaneously at 0.5 mg/kg on days 1, 3, 5, 7, 9, 11, and 13 following ACLT. At 14 days following surgery, ACLT, contralateral (CL) and sham (S) joints were harvested and lavaged. Lavaging was performed by injecting 100 μl in the joint capsule, flexing and extending the joint for ten times and aspirating 50 μl of fluid. SF Lubricin levels: Lubricin levels were determined using sandwich ELISA employing a lubricin-specific monoclonal antibody, and peanut agglutinin (PNA). Ex-vivo joint μ: Articular joints' μ values were determined using modified Stanton pendulum (Elsaid K A et al, Arthritis Rheum 2007; 56:108-116). sGAG levels in SF lavages: Total sGAG levels were determined by Alcian blue binding assay.
(An ELISA detects its analyte on a solid surface through an enzyme-linked reagent.)

The test system of assay [4] is ACL-transection model. The experiment in a line: SF lavage lubricin levels by sandwich ELISA, early vs late etanercept, ACL-transection model, Example 4. The note with it: 28 days following transection. The procedure:
as §1, §2

In assay [5] the test system is ACL-transection (ACLT) model. The experiment in a line: sGAG levels in SF lavages by Alcian blue binding assay, ACL-transection model, Example 3. The note with it: etanercept-treated vs non-treated joints; 0.5 mg/kg subcutaneously days 1-13; 2 weeks following ACLT. The procedure:
as §3

For assay [6], the system named is ACL-transection (ACLT) model. The experiment in a line: Ex-vivo joint coefficient of friction (μ), modified Stanton pendulum, ACL-transection model, Example 3. To be noted: etanercept-treated ACLT joints vs non-treated ACLT joints; 0.5 mg/kg subcutaneously days 1-13; 2 weeks following ACLT. The procedure: as §3

Entries after “also recorded” stand apart in the source; their conditions may differ.

Turning to etanercept, the “mean coefficient of friction (μ)” value in assay [1] (Treatment A (0.5 mg/kg s.c. days 8 and 15), ACLT joints) is on record as 6.5*10^−4; in assay [1] (Treatment A (0.5 mg/kg s.c. days 8 and 15), CL joints), 4.7*10^−4; in assay [1] (Treatment B (0.5 mg/kg s.c. days 15 and 22), ACLT joints) it was 6.6*10^−4; in assay [1] (Treatment B (0.5 mg/kg s.c. days 15 and 22), CL joints), 4.9*10^−4. Besides, the “joints' μ values, treatments A and B vs untreated ACLT and sham joints” value in assay [1] (treatments A and B) is recorded as “lower than the μ values of ACLT joints”. The “Lubricin coverage in the CL joints” value in assay [2] (contralateral (CL) joints, treatments A and B vs other groups, 28 days following transection) is “comparable across the different groups”. Moreover, the “lubricin layer in the superficial zone” value in assay [2] (inflamed rat joint following an ACL injury, ENBREL alone) was “reestablishes some of the lubricin layer in the superficial zone”. Also, the “Lubricin coverage of articular surfaces (percentage surface coverage)” value in assay [2] (untreated ACLT joints compared to treatments A and B (0.5 mg/kg s.c.), 28 days following transection) is listed as “significantly (p<0.01) lower than in treatment-A, treatment-B; also recorded: significantly (p<0.01) lower in the ACLT joints compared to treatments A, B”. Moreover, the “Lubricin SF lavage levels” value is listed as “significantly (p<0.001) higher” in assay [3] and “upregulation of lubricin” in assay [3] (listed as ENBREL™). In addition, the “SF lavage lubricin levels” value in assay [4] (Treatment A (0.5 mg/kg s.c. days 8 and 15), ACLT joints, vs ACLT control and treatment B) is “significantly (p<0.01) higher”. Further, the “SF lavage lubricin levels in CL joints” value in assay [4] (contralateral (CL) joints, treatments A and B vs other groups) was “comparable across the different groups”. In assay [5], the “sGAG SF lavage levels” value is “significantly (p<0.001) lower”. In addition, the “ex-vivo joint coefficient of friction (μ)” value in assay [6] is reported as “significantly (p=0.021) lower”.
